Results as given in PubChem BioAssay AID256 (DTP/NCI, 2004).
Toxic doses and inconclusive results are not listed.

Test system: CD2F1 mice, L1210 leukemia ip, survival T/C
Test: NCI In Vivo Anticancer Drug Screen. Data for tumor model L1210 Leukemia (intraperitoneal) in CD2F1 (CDF1) mice
Details: higher = longer survival
Summary of the method: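 Read-out first: treated-group measurement over vehicle-control measurement, expressed as a ratio. Animals bore a transplanted tumor line and were dosed with compound or vehicle.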

[1] = endpoint: mean survival time, dose: 100.0 mg/kg/injection, schedule: Q04DX003 (ip), vehicle: saline with Tween-80
[2] = endpoint: mean survival time, dose: 200.0 mg/kg/injection, schedule: Q04DX003 (ip), vehicle: saline with Tween-80
[3] = endpoint: mean survival time, dose: 400.0 mg/kg/injection, schedule: Q04DX003 (ip), vehicle: saline with Tween-80
[4] = endpoint: mean survival time, dose: 100.0 mg/kg/injection, schedule: Q01DX009 (ip), vehicle: saline with Tween-80
[5] = endpoint: mean survival time, dose: 200.0 mg/kg/injection, schedule: Q01DX009 (ip), vehicle: saline with Tween-80
[6] = endpoint: mean survival time, dose: 400.0 mg/kg/injection, schedule: Q01DX009 (ip), vehicle: saline with Tween-80
[7] = endpoint: mean survival time, dose: 100.0 mg/kg/injection, schedule: Q04DX002 (ip), vehicle: saline
[8] = endpoint: mean survival time, dose: 200.0 mg/kg/injection, schedule: Q04DX002 (ip), vehicle: saline
[9] = endpoint: mean survival time, dose: 50.0 mg/kg/injection, schedule: Q01DX009 (ip), vehicle: saline
[10] = endpoint: mean survival time, dose: 100.0 mg/kg/injection, schedule: Q01DX009 (ip), vehicle: saline
[11] = endpoint: mean survival time, dose: 50.0 mg/kg/injection, schedule: Q01DX009 (ip), vehicle: saline with Tween-80
[12] = endpoint: mean survival time, dose: 200.0 mg/kg/injection, schedule: Q01DX001 (ip), vehicle: saline with Tween-80
[13] = endpoint: mean survival time, dose: 400.0 mg/kg/injection, schedule: Q01DX001 (ip), vehicle: saline with Tween-80
[14] = endpoint: mean survival time, dose: 100.0 mg/kg/injection, schedule: Q04DX003 (ip), vehicle: saline
[15] = endpoint: mean survival time, dose: 200.0 mg/kg/injection, schedule: Q04DX003 (ip), vehicle: saline
[16] = endpoint: mean survival time, dose: 400.0 mg/kg/injection, schedule: Q04DX003 (ip), vehicle: saline
[17] = endpoint: mean survival time, dose: 100.0 mg/kg/injection, schedule: Q01DX001 (ip), vehicle: saline with Tween-80
[18] = endpoint: mean survival time, dose: 300.0 mg/kg/injection, schedule: Q01DX001 (ip), vehicle: saline
[19] = endpoint: mean survival time, dose: 100.0 mg/kg/injection, schedule: Q04DX002 (ip), vehicle: saline with Tween-80

O=C(O)C(O)(c1ccccc1)c1ccsc1 (configuration not stated)
T/C [1]: 101 % of control | T/C [2]: 98 % of control | T/C [3]: 103 % of control

CC(CC=O)CCCC(C)(C)O (configuration not stated)
T/C [1]: 103 % of control | T/C [2]: 95 % of control | T/C [3]: 98 % of control

O=C(CCC(=O)c1cccc([N+](=O)[O-])c1)NNc1ccc([N+](=O)[O-])cc1[N+](=O)[O-]
T/C [1]: 98 % of control | T/C [2]: 98 % of control | T/C [3]: 102 % of control

N#C/C(=N\Nc1ccc(S(=O)(=O)O)cc1)C(N)=O
T/C [4]: 95 % of control | T/C [5]: 91 % of control | T/C [6]: 94 % of control

Nc1nc(=O)[nH]c(N)c1N
T/C [7]: 97 % of control | T/C [8]: 117 % of control

O=C(c1ccccc1)C(Cl)Cl
T/C [9]: 95 % of control | T/C [4]: 108 % of control | T/C [10]: 95 % of control | T/C (endpoint: mean survival time, dose: 200.0 mg/kg/injection, schedule: Q01DX009 (ip), vehicle: saline): 106 % of control | T/C [6]: 86 % of control

c1ccc(CCc2ccnc3ccccc23)cc1
T/C [11]: 94 % of control | T/C [4]: 98 % of control | T/C [5]: 100 % of control

CCOC(=O)C(N)Cc1ccc(O)cc1 (configuration not stated)
T/C (endpoint: mean survival time, dose: 100.0 mg/kg/injection, schedule: Q04DX003 (ip), vehicle: other): 102 % of control | T/C (endpoint: mean survival time, dose: 200.0 mg/kg/injection, schedule: Q04DX003 (ip), vehicle: other): 100 % of control | T/C (endpoint: mean survival time, dose: 400.0 mg/kg/injection, schedule: Q04DX003 (ip), vehicle: other): 97 % of control

COc1ccc(CC2C(=O)OC(=O)C2Cc2ccc(OC)c(OC)c2)cc1OC (configuration not stated)
T/C [4]: 104 % of control | T/C [5]: 108 % of control | T/C [6]: 96 % of control

Cc1cccc(/C=N/OCCC(C)C)n1
T/C [11]: 102 % of control | T/C [4]: 96 % of control | T/C [1]: 93 % of control | T/C [5]: 102 % of control | T/C [2]: 89 % of control

N#CC/C(=N\Nc1ccc([N+](=O)[O-])cc1[N+](=O)[O-])c1ccccc1
T/C (endpoint: mean survival time, dose: 100.0 mg/kg/injection, schedule: Q04DX003 (ip), vehicle: saline sonified): 100 % of control | T/C (endpoint: mean survival time, dose: 200.0 mg/kg/injection, schedule: Q04DX003 (ip), vehicle: saline sonified): 100 % of control | T/C (endpoint: mean survival time, dose: 400.0 mg/kg/injection, schedule: Q04DX003 (ip), vehicle: saline sonified): 97 % of control

CCCCCOS(=O)(=O)c1ccc(Cl)c([N+](=O)[O-])c1
T/C [1]: 98 % of control

Nc1nc2c(ncn2-c2ccc(OCCCc3ccccc3)cc2)c(=O)[nH]1
T/C [12]: 88 % of control | T/C [13]: 89 % of control

O=C1NC2(c3ccccc3)NC(=O)NC2(c2ccccc2)N1 (configuration not stated)
T/C [4]: 98 % of control | T/C [1]: 101 % of control | T/C [5]: 98 % of control | T/C [2]: 97 % of control | T/C [6]: 104 % of control | T/C [3]: 95 % of control

CC(=O)NC1CCCC(O)C1 (configuration not stated)
T/C [14]: 102 % of control | T/C [15]: 95 % of control | T/C [16]: 101 % of control

COC(=O)C(C(=O)OC)(C(=O)OC)C(=O)c1ccccc1
T/C [17]: 104 % of control | T/C [12]: 96 % of control | T/C [13]: 93 % of control

Cc1ccnc(N/C=C/c2cc[n+](C)cc2)c1
T/C (endpoint: mean survival time, dose: 75.0 mg/kg/injection, schedule: Q01DX001 (ip), vehicle: saline): 105 % of control | T/C (endpoint: mean survival time, dose: 150.0 mg/kg/injection, schedule: Q01DX001 (ip), vehicle: saline): 111 % of control | T/C [18]: 114 % of control

O=C1OC(=O)C2C3c4ccccc4C(c4c3c(-c3ccccc3)c3ccccc3c4-c3ccccc3)C12 (configuration not stated)
T/C [17]: 87 % of control | T/C [12]: 87 % of control | T/C [13]: 93 % of control

CNCCc1ccc(O)c(O)c1
T/C [18]: 100 % of control

O=C1C=C(c2ccccc2)C(O)(c2ccccc2)C1 (configuration not stated)
T/C [11]: 89 % of control | T/C [4]: 104 % of control | T/C [5]: 89 % of control

O=[N+]([O-])c1ccc(CSCc2ccc([N+](=O)[O-])cc2)cc1
T/C (endpoint: mean survival time, dose: 50.0 mg/kg/injection, schedule: Q04DX003 (ip), vehicle: Klucel (hydroxypropylcellulose) (HPC)): 98 % of control | T/C (endpoint: mean survival time, dose: 100.0 mg/kg/injection, schedule: Q04DX003 (ip), vehicle: Klucel (hydroxypropylcellulose) (HPC)): 92 % of control | T/C (endpoint: mean survival time, dose: 200.0 mg/kg/injection, schedule: Q04DX003 (ip), vehicle: Klucel (hydroxypropylcellulose) (HPC)): 97 % of control

OCC(O)c1ccccc1 (configuration not stated)
T/C [7]: 97 % of control | T/C [8]: 101 % of control | T/C (endpoint: mean survival time, dose: 400.0 mg/kg/injection, schedule: Q04DX002 (ip), vehicle: saline): 104 % of control

CC(=O)OC1C(OC(C)=O)C2C(C)(C)CCCC2(C)C2Cc3occc3C(C)C12 (configuration not stated)
T/C (endpoint: mean survival time, dose: 50.0 mg/kg/injection, schedule: Q04DX003 (ip), vehicle: saline with Tween-80): 96 % of control | T/C (endpoint: mean survival time, dose: 50.0 mg/kg/injection, schedule: Q04DX003 (ip), vehicle: saline): 102 % of control | T/C [1]: 98 % of control | T/C [14]: 98 % of control | T/C [2]: 96 % of control | T/C [15]: 96 % of control | T/C [3]: 91 % of control | T/C [16]: 96 % of control

Cc1ccc(S(=O)(=O)OCC2OC(n3cnc4c(NC=O)ncnc43)C(OC=O)C2OC=O)cc1 (configuration not stated)
T/C (endpoint: mean survival time, dose: 25.0 mg/kg/injection, schedule: Q01DX009 (ip), vehicle: saline): 104 % of control | T/C [9]: 102 % of control | T/C [10]: 98 % of control

CC1=CC(=O)C(CCC(=O)O)C(C)(C)C1 (configuration not stated)
T/C [19]: 91 % of control | T/C (endpoint: mean survival time, dose: 200.0 mg/kg/injection, schedule: Q04DX002 (ip), vehicle: saline with Tween-80): 94 % of control | T/C (endpoint: mean survival time, dose: 400.0 mg/kg/injection, schedule: Q04DX002 (ip), vehicle: saline with Tween-80): 94 % of control

COc1cc(NS(C)(=O)=O)ccc1Nc1c2ccc([N+](=O)[O-])cc2nc2c(C)cccc12
T/C (endpoint: mean survival time, dose: 3.75 mg/kg/injection, schedule: Q04DX003 (ip), vehicle: saline with Tween-80): 151 % of control | T/C (endpoint: mean survival time, dose: 7.5 mg/kg/injection, schedule: Q01DX009 (ip), vehicle: saline with Tween-80): 111 % of control | T/C (endpoint: mean survival time, dose: 7.5 mg/kg/injection, schedule: Q04DX003 (ip), vehicle: saline with Tween-80): 164 % of control | T/C (endpoint: mean survival time, dose: 15.0 mg/kg/injection, schedule: Q04DX003 (ip), vehicle: saline with Tween-80): 235 % of control | T/C (endpoint: mean survival time, dose: 37.5 mg/kg/injection, schedule: Q04DX003 (ip), vehicle: saline): 109 % of control | T/C (endpoint: mean survival time, dose: 75.0 mg/kg/injection, schedule: Q04DX003 (ip), vehicle: saline): 86 % of control

CCOC(=O)/C=C/C1=CCCCC1
T/C [11]: 101 % of control | T/C [4]: 96 % of control | T/C [5]: 108 % of control

Cc1cc2c3ccc(C)[n+](C)c3ccc2n1C
T/C (endpoint: mean survival time, dose: 1.19 mg/kg/injection, schedule: Q01DX001 (ip), vehicle: saline): 103 % of control | T/C (endpoint: mean survival time, dose: 2.37 mg/kg/injection, schedule: Q01DX001 (ip), vehicle: saline): 109 % of control | T/C (endpoint: mean survival time, dose: 4.75 mg/kg/injection, schedule: Q01DX001 (ip), vehicle: saline): 97 % of control

Cc1nc(N)c2ncn(C3OC(CO)C(O)C3O)c2n1 (configuration not stated)
T/C [19]: 115 % of control

O=C1CC(c2ccccc2)C(c2ccccc2)=C1Cl (configuration not stated)
T/C [4]: 94 % of control | T/C [5]: 98 % of control | T/C [6]: 96 % of control

Brc1cnc(Br)s1
T/C (endpoint: mean survival time, dose: 13.0 mg/kg/injection, schedule: Q04DX002 (ip), vehicle: Klucel (hydroxypropylcellulose) (HPC)): 92 % of control | T/C (endpoint: mean survival time, dose: 20.0 mg/kg/injection, schedule: Q04DX002 (ip), vehicle: Klucel (hydroxypropylcellulose) (HPC)): 98 % of control | T/C (endpoint: mean survival time, dose: 30.0 mg/kg/injection, schedule: Q04DX002 (ip), vehicle: Klucel (hydroxypropylcellulose) (HPC)): 98 % of control | T/C (endpoint: mean survival time, dose: 45.0 mg/kg/injection, schedule: Q04DX002 (ip), vehicle: Klucel (hydroxypropylcellulose) (HPC)): 95 % of control

CC1CN1CCCNC(=O)C(=O)NCCCN1CC1C (configuration not stated)
T/C (endpoint: mean survival time, dose: 100.0 mg/kg/injection, schedule: Q01DX001 (ip), vehicle: saline): 182 % of control

CNC(=S)SC1=NS(=O)(=O)c2ccccc2N1
T/C (endpoint: median survival time, dose: 25.0 mg/kg/injection, schedule: Q01DX005 (ip), vehicle: Klucel (hydroxypropylcellulose) (HPC)): 106 % of control | T/C (endpoint: median survival time, dose: 50.0 mg/kg/injection, schedule: Q01DX005 (ip), vehicle: Klucel (hydroxypropylcellulose) (HPC)): 101 % of control | T/C (endpoint: median survival time, dose: 100.0 mg/kg/injection, schedule: Q01DX005 (ip), vehicle: Klucel (hydroxypropylcellulose) (HPC)): 108 % of control | T/C (endpoint: median survival time, dose: 144.0 mg/kg/injection, schedule: Q01DX005 (ip), vehicle: Klucel (hydroxypropylcellulose) (HPC)): 113 % of control | T/C (endpoint: median survival time, dose: 200.0 mg/kg/injection, schedule: Q01DX005 (ip), vehicle: Klucel (hydroxypropylcellulose) (HPC)): 118 % of control
